From ChEMBL document CHEMBL1151067, “Stereoselectivity in the hydrolysis of synthetic esters by cultured cancer cells and normal tissue extracts of rat” (1994)

Columns and labels:
[1] = tested on: XC; experiment: Stereoselectivity in enzymic hydrolysis by rat cancer XC cells; assay type: functional
[2] = species on record: Rattus norvegicus; experiment: Stereoselectivity in enzymic hydrolysis by normal rat pancreas extracts; assay type: functional
[3] = tested on: COLO 320; experiment: Stereoselectivity in enzymic hydrolysis by human cancer COLO 320 (colon adenocarcinoma) cells; assay type: functional
[4] = species on record: Rattus norvegicus; experiment: Stereoselectivity in enzymic hydrolysis by normal rat kidney extracts; assay type: functional
[5] = species on record: Rattus norvegicus; experiment: Stereoselectivity in enzymic hydrolysis by normal rat intestine extracts; assay type: functional
[6] = species on record: Rattus norvegicus; experiment: Stereoselectivity in enzymic hydrolysis by normal rat liver extracts; assay type: functional
[7] = tested on: NRK-49F; experiment: Stereoselectivity in enzymic hydrolysis by rat cancer NRK49F cells; assay type: functional
[8] = tested on: IA-XsSBR cell line; experiment: Stereoselectivity in enzymic hydrolysis by rat cancer IA-XsSBR cells; assay type: functional
[9] = tested on: U-937; experiment: Stereoselectivity in enzymic hydrolysis by human cancer U937 (histiocytic lymphoma) cells; assay type: functional
[10] = tested on: ARIP cell line; experiment: Stereoselectivity in enzymic hydrolysis by rat cancer ARIP cells; assay type: functional
[11] = tested on: CCRF S-180; experiment: Stereoselectivity in enzymic hydrolysis by mouse sarcoma S180 cells; assay type: functional
[12] = tested on: Anr4; experiment: Stereoselectivity in enzymic hydrolysis by rat cancer Anr4 cells; assay type: functional
[13] = species on record: Rattus norvegicus; experiment: Stereoselectivity in enzymic hydrolysis by normal rat muscle extracts; assay type: functional, Muscle tissue
[14] = tested on: MIA PaCa-2; experiment: Stereoselectivity in enzymic hydrolysis by human cancer MIA PaCa-2 (pancreatic carcinoma) cells; assay type: functional
[15] = tested on: CCRF S-180; experiment: Stereoselectivity in enzymic hydrolysis of compound by mouse sarcoma S180 cells; assay type: functional

Row | Structure (SMILES) | Conversion rate [1] [%] | Conversion rate [2] [%] | Conversion rate [3] [%] | Conversion rate [4] [%] | Conversion rate [5] [%] | Conversion rate [6] [%] | Conversion rate [7] [%] | Conversion rate [8] [%] | Conversion rate [9] [%] | Conversion rate [10] [%] | Conversion rate [11] [%] | Conversion rate [12] [%] | Conversion rate [13] [%] | Conversion rate [14] [%] | Conversion rate [15] [%]
1 | CCOC(=O)C(NC=O)c1ccccc1 (stereo not drawn) | 1.2 | 14.3 | 3.8 | 7.6 | 1.4 | 2.7 | 2.2 | 1.3 | 3.5 | 1.6 | 3.6 | 1.2 | 5.9 |  | 
2 | CCOC(=O)C(OC)c1ccccc1 (stereo not drawn) |  |  |  |  |  |  |  |  |  |  | 4.3 |  |  |  | 
3 | CCCCCCCCOC(=O)C(C)c1ccccc1 (stereo not drawn) |  |  |  |  |  |  |  |  |  |  | 11 |  |  |  | 
4 | CCOC(=O)C(Cc1ccccc1)NC(C)=O (stereo not drawn) | 42 | 43.8 | 13.8 | 23.2 | 37.3 | 48.2 | 35.1 | 30.5 | 17.5 | 37.2 | 12.9 | 30.6 | 31.9 | 42 | 
5 | CCOC(=O)C(O)c1ccccc1 (stereo not drawn) |  |  |  |  |  |  |  |  |  |  | 21.2 |  |  |  | 
6 | CCOC(=O)C(C)c1ccccc1 (stereo not drawn) | 0.6 | 1.2 | 1.2 | 11.2 | 5 | 11.5 | 8.2 | 1.4 | 1.4 | 6.9 |  | 0.5 | 1 | 11.9 | 18.1
7 | CCOC(=O)C(C)Oc1ccccc1 (stereo not drawn) | 23 | 33.3 |  | 53 | 5 | 52.5 | 4.5 | 12.2 |  | 5.7 | 38.9 | 14.2 | 18 | 35.9 | 
8 | CCOC(=O)C(NC(C)=O)c1ccccc1 (stereo not drawn) |  |  |  |  |  |  |  |  |  |  | 4.3 |  |  |  | 
9 | CC(C(=O)OCCC1CCCCC1)c1ccccc1 (stereo not drawn) |  |  |  |  |  |  |  |  |  |  | 6.1 |  |  |  | 
